From patent publication US20200147169A1, “COMPOSITION COMPRISING A HIGH CONCENTRATION OF ITURIN LIPOPEPTIDES” (LIPOFABRIK, priority 2017, published 2020)

Experiment: Solubility of iturinic lipopeptide (mycosubtilin) alone or in compositions with surfactants; supernatant after centrifugation analysed by RP-HPLC
Type: physicochemical
Description: An iturinic lipopeptide (here mycosubtilin), having a purity (on dry matter) of between 45% and 80%, was solubilized alone in water at different concentrations and this control composition was compared to different compositions to which different surfactant compounds were added as described in the application. After 15 days of storage at 21° C., only compositions with a rheological behaviour of the fluid type and a homogeneous appearance (without flow preventing caking and/or phase shift and/or precipitation) are selected, mixed by stirring, then these compositions are centrifuged for 10 minutes at 10,000 g and the supernatant is analysed using the RP-HPLC reference method. This method makes it possible to check the solubility of the iturinic compounds that are then found in the supernatant after centrifugation.
The solubility of iturinic lipopeptide (here mycosubtilin) alone in an aqueous solution as a function of its concentration is shown in FIG. 1. No surfactant is added to composition 1 which contains only iturinic lipopeptides.
The measurement is made on the supernatant after a centrifugation step to eliminate insoluble substances.

mycosubtilin
solubility of mycosubtilin (alkylthoxyglycoside (AEG 0.4%, composition 8 of FIG. 2), 15 days at room temperature): above 30 g/L
iturinic compound solubility (combination of surfactin and fengycin (composition 10 of FIG. 2), compared with fengycin or surfactin alone): even higher
appearance / solubility beyond the maximum concentration (mycosubtilin alone in aqueous solution, between 5 and 25 g/L (FIG. 1)): a precipitate that settles can be observed and only a small part remains soluble
maximum concentration at which mycosubtilin solubilizes (mycosubtilin alone in aqueous solution, room temperature, no surfactant (FIG. 1)): 2 g/L
maximum solubility of mycosubtilin (non-ionic Simulsol and anionic Protéol, 10% each (composition 3 of FIG. 2), 15 days at room temperature): 15.3 mg/mL
maximum solubility of mycosubtilin (non-ionic compound Emulsogen (0.2%) (composition 6 of FIG. 2), 15 days at room temperature): 11.6 mg/mL
solubility of mycosubtilin (penthylene glycol (50%, composition 7 of FIG. 2), 15 days at room temperature): above 30 g/L
solubility of mycosubtilin (presence of fengycin (10%, composition 2 of FIG. 2), 15 days at room temperature, supernatant after centrifugation): ~30 mg/mL
solubility of mycosubtilin (presence of surfactin (4%, composition 9 of FIG. 2), 15 days at room temperature, supernatant after centrifugation): ~30 mg/mL
maximum solubility of mycosubtilin (soy lecithin (4%) coupled with Xanthan gum (0.1%) (composition 4 of FIG. 2), 15 days at room temperature): 1.5 mg/mL
maximum solubility of the iturinic compound (surfactin (4%) and non-ionic surfactant Emulsogen (0.2%) (composition 13 of FIG. 2), 15 days at room temperature): 112 mg/mL
